Measurements as given in article PMC8097972 (Journal of neurochemistry, 2020).

Tests used:
Kv1.3 [1] = conditions: ref Knaus et al. 1995; Fadool and Levitan 1998; cited from earlier work
mitral cells = conditions: cited from earlier work
Kv1.3 [2] = biological target: Kv1.3 (Rattus norvegicus, UniProt P15384); experiment: Whole-cell patch-clamp inhibition of Kv1.3 in transfected HEK293 cells; type: cell-based; conditions: 10 nM; T0 vs T5 (225 s); two-way mixed-design ANOVA
DIO mice [3] = experiment: Intraperitoneal glucose tolerance test in obese mice; type: in vivo, mouse; conditions: day +13 after OB pump start, 12 h fasted, vs PBS; treatment p = 0.0146
DIO mice [4] = experiment: Indirect calorimetry; type: in vivo, mouse; conditions: +2 to +12, light and dark cycle; light p = 0.496, dark p = 0.2581

Sequence of Kv1.3 (Rattus norvegicus, UniProt P15384) (P15384 whole entry): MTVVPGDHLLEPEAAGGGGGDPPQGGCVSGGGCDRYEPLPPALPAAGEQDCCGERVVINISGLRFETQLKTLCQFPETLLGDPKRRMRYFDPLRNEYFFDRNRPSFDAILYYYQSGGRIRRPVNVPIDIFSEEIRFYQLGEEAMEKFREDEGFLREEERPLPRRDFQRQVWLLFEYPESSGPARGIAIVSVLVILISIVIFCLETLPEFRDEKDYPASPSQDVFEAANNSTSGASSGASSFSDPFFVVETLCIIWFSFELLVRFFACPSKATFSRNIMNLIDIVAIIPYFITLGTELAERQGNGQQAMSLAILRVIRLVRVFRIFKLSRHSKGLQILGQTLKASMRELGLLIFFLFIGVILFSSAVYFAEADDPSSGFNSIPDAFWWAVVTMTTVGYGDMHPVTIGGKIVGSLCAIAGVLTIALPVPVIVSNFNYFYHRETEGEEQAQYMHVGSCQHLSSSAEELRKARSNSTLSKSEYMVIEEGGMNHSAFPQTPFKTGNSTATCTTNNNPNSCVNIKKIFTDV

margatoxin (TIINVKCTSPKQCLPPCKAQFGQSAGAKCMNGKCKCYPH; UniProt P40755 1-39, looked up) [MgTx]
koff (printed as a time) (Kv1.3 [1]): 2 h | kon (in words) (Kv1.3 [1]): rather slow for a vestibule blocker | effect on mitral cell spike firing (mitral cells; ref Mast and Fadool 2012, Thiebaud et al. 2016): increase the spike firing frequency and reduce the pause duration between AP trains, but have less effect on ISI

QDMgTx: HisMgTx conjugated to His-PIMA-ZW capped CdSe-ZnS QDs by metal-histidine self-assembly (TIINVKCTSPKQCLPPCKAQFGQSAGAKCMNGKCKCYPH; His tag; self-assembled on CdSe-ZnS quantum dots; UniProt P40755 1-39, looked up)
change in Kv1.3 peak current amplitude (in words) (Kv1.3 [2]): significantly decreased Kv1.3 peak current amplitude | glucose clearance (IPGTT) (DIO mice [3]): cleared glucose significantly faster than control animals | energy expenditure (EE) (DIO mice [4]): no change in EE in either the light or dark cycle

insulin
ability to increase mitral cell activity after diet-induced obesity (mitral cells; following diet-induced obesity, ref Fadool et al. 2011): significantly reduced
